Measurements taken from ChEMBL document CHEMBL3994623, “The synthesis and antistaphylococcal activity of 9, 13-disubstituted berberine derivatives” (Eur J Med Chem, 2017).

Key:
[1] = system: Staphylococcus aureus; assay: Antistaphylococcal activity against Staphylococcus aureus Newman after 18 hrs by two fold serial dilution method; assay type: functional
[2] = system: Staphylococcus aureus; assay: Antistaphylococcal activity against gentamicin-resistant Staphylococcus aureus NRS-108 after 18 hrs by two fold serial dilution method; assay type: functional; conditions: NRS-108, 18 h
[3] = system: Staphylococcus aureus; assay: Antistaphylococcal activity against erythromycin-resistant Staphylococcus aureus NRS-70 after 18 hrs by two fold serial dilution method; assay type: functional; conditions: NRS-70, 18 h
[4] = system: Staphylococcus aureus; assay: Antistaphylococcal activity against linezolid-resistant Staphylococcus aureus NRS-271 containing phage type E-MRSA after 18 hrs by two fold serial dilution method; assay type: functional; conditions: NRS-271, 18 h
[5] = Cytotoxicity against HAF assessed as decrease in cell viability after 24 hrs by MTS assay; assay type: cell-based; conditions: Homo sapiens
[6] = system: Staphylococcus aureus; assay: Antistaphylococcal activity against aminoglycosides/tetracycline-resistant Staphylococcus aureus NRS-1 after 18 hrs by two fold serial dilution method; assay type: functional; conditions: NRS-1, 18 h
[7] = system: Staphylococcus aureus; assay: Antistaphylococcal activity against oxacillin/tetracycline-resistant Staphylococcus aureus NRS-100 after 18 hrs by two fold serial dilution method; assay type: functional; conditions: NRS-100, 18 h
[8] = system: Staphylococcus aureus; assay: Potency index, ratio of totarol MIC to test compound MIC for linezolid-resistant Staphylococcus aureus NRS-271 containing phage type E-MRSA; assay type: functional
[9] = system: Staphylococcus aureus; assay: Potency index, ratio of totarol MIC to test compound MIC for erythromycin-resistant Staphylococcus aureus NRS-70; assay type: functional
[10] = Cytotoxicity against HAF assessed as effect on cell morphology at 12.5 ug/ml after 24 hrs by hematoxylin-eosin staining-based contrast microscopic method; conditions: human
[11] = system: Staphylococcus aureus; assay: Potency index, ratio of totarol MIC to test compound MIC for oxacillin/tetracycline-resistant Staphylococcus aureus NRS-100; assay type: functional
[12] = system: Staphylococcus aureus; assay: Potency index, ratio of totarol MIC to test compound MIC for gentamicin-resistant Staphylococcus aureus NRS-108
[13] = system: Staphylococcus aureus; assay: Potency index, ratio of totarol MIC to test compound MIC for aminoglycosides/tetracycline-resistant Staphylococcus aureus NRS-1; assay type: functional
[14] = Cytotoxicity against HAF assessed as effect on cell morphology at […] ug/ml after 24 hrs by hematoxylin-eosin staining-based contrast microscopic method; conditions: human

Row | SMILES | MIC [1] [mg/L] | MIC [2] [mg/L] | MIC [3] [mg/L] | MIC [4] [mg/L] | IC50 [5] [mg/L] | MIC [6] [mg/L] | MIC [7] [mg/L] | Ratio [8] | Ratio [9] | Activity [10] | Ratio [11] | Ratio [12] | Ratio [13] | Activity [14]
1 | CCCCCNc1c(OC)ccc2c(Cc3cccs3)c3[n+](cc12)CCc1cc2c(cc1-3)OCO2.[Br-] | 3.13 |  |  |  |  |  |  |  |  |  |  |  |  | 
2 | CCCCCNc1c(OC)ccc2c(CC(=O)O)c3[n+](cc12)CCc1cc2c(cc1-3)OCO2.[Br-] | 25 |  |  |  |  |  |  |  |  |  |  |  |  | 
3 | CCCCCNc1c(OC)ccc2c(Cc3ccccc3C)c3[n+](cc12)CCc1cc2c(cc1-3)OCO2.[Br-] | 1.25 | 1.56 | 1.56 | 3.13 | 13 | 3.13 | 3.13 |  |  |  |  |  |  | 
4 | CCCCNc1c(OC)ccc2c(Cc3ccc(F)cc3)c3[n+](cc12)CCc1cc2c(cc1-3)OCO2.[Br-] | 2.5 | 3.13 | 3.13 | 3.13 |  | 6.25 | 6.25 |  |  |  |  |  |  | 
5 | CCCCNc1c(OC)ccc2c(Cc3ccc(C)cc3)c3[n+](cc12)CCc1cc2c(cc1-3)OCO2.[Br-] | 1.56 | 3.13 | 1.56 | 1.56 |  | 1.56 | 1.56 |  |  |  |  |  |  | 
6 | COc1ccc2cc3[n+](cc2c1OC)CCc1cc2c(cc1-3)OCO2 [BERBERINE] | > 25 |  |  |  |  |  |  |  |  |  |  |  |  | 
7 | CCCCCCNc1c(OC)ccc2c(Cc3ccc(C)cc3)c3[n+](cc12)CCc1cc2c(cc1-3)OCO2.[Br-] | 1.56 | 1.56 | 1.56 | 1.56 | 12.8 | 1.56 | 1.56 | 1 - 4 | 1 - 4 | Toxic | 1 - 4 | 1 - 4 | 1 - 4 | Non-Toxic
8 | CCCCCNc1c(OC)ccc2c(Cc3cccc(C)c3)c3[n+](cc12)CCc1cc2c(cc1-3)OCO2.[Br-] | 1.25 | 1.56 | 1.56 | 1.56 | 12.7 | 3.13 | 3.13 |  |  |  |  |  |  | 
9 | CCCCCCNc1c(OC)ccc2c(Cc3ccc(F)cc3)c3[n+](cc12)CCc1cc2c(cc1-3)OCO2.[Br-] | 1.56 | 3.13 | 3.13 | 3.13 |  | 3.13 | 6.25 |  |  |  |  |  |  | 
10 | CCCCCNc1c(OC)ccc2c(Cc3ccccn3)c3[n+](cc12)CCc1cc2c(cc1-3)OCO2.[Br-] | 12.5 |  |  |  |  |  |  |  |  |  |  |  |  | 
11 | CCCCNc1c(OC)ccc2c(Cc3ccccc3)c3[n+](cc12)CCc1cc2c(cc1-3)OCO2.[Br-] | 3.13 |  |  |  | > 20 |  |  |  |  |  |  |  |  | 
12 | COc1ccc2c(Cc3ccccc3)c3[n+](cc2c1OC)CCc1cc2c(cc1-3)OCO2.[Br-] | 6.25 |  |  |  |  |  |  |  |  |  |  |  |  | 
13 | CCCCCNc1c(OC)ccc2c(Cc3ccc(C(F)(F)F)cc3)c3[n+](cc12)CCc1cc2c(cc1-3)OCO2.[Br-] | 1.25 | 1.56 | 1.56 | 1.56 | 11.4 | 1.56 | 1.56 | 1 - 4 | 1 - 4 | Toxic | 1 - 4 | 1 - 4 | 1 - 4 | Non-Toxic
14 | CCCCCCNc1c(OC)ccc2c(Cc3ccc(OC)cc3)c3[n+](cc12)CCc1cc2c(cc1-3)OCO2.[Br-] | 2.5 | 3.13 | 3.13 | 6.25 |  | 6.25 | 3.13 |  |  |  |  |  |  | 
15 | COc1ccc2c(Cc3ccc(C)cc3)c3[n+](cc2c1NCCCO)CCc1cc2c(cc1-3)OCO2.[Br-] | 6.25 |  |  |  |  |  |  |  |  |  |  |  |  | 
